Series [1] is described as follows: Hygroscopic nature by dynamic vapor sorption. The format is physicochemical. The note with it: relative humidities greater than about 20%. From the text:
The hygroscopic nature of the succinate salt hemihydrate was investigated by dynamic vapor sorption.

Series [2] in a line: Saturated solution of the maleate salt (Funke et al., literature). The format is physicochemical. The note with it: water, thermodynamic from solid; translated from saturated solution of the maleate at 23° C., pH=4.4; read-out: free base solubility.
The conditions of series [3]: 23° C., pH=4.4; cited from earlier work.

Structures can show the parent of a compound that is named as a salt.

In general, solubility refers to how much of the substance goes into solution per volume.

For the compound “Asenapine succinate form I [succinate salt hemihydrate]”, the “water content by dynamic vapor sorption” value in series [1] is 2 to 2.5%.
For the compound `CN1C[C@@H]2c3ccccc3Oc3ccc(Cl)cc3[C@H]2C1` (relative stereo) [maleate salt of Asenapine, trans-5-chloro-2-methyl-2,3,3a,12b-tetrahydro-1H-dibenz[2,3:6,7]oxepino[4,5-c]pyrrole], the solubility in series [2] was ~4100 µg/mL. In addition, the “concentration of saturated solution” value in series [3] was 5800 µg/mL.
